Data on 1 molecule can be found in patent publication US20030134901A1, “Lipoxin compounds and their use in treating cell proliferative disorders” (priority 1993, published 2003).

One assay has as its system A549 cells. The assay is described as follows: A549 cell proliferation, MTT assay. The class given is cell-based, human. How it is done: A microculture 3,(4,5-dimethylthiazoyl-2-yl) 2,5 (diphenyl-tetrazolium bromide) (MTT) assay, (Marshall, N. J., et al. (1995) A critical assessment of the use of microculture tetrazolium assays to measure cell growth and function. Growth Regul. 5: 69-84.), was used to examine the actions of LXs and other eicosanoids on cell proliferation. A549 cells and fibroblasts from exponential-phase maintenance cultures were counted and dispensed within replicate 96-well culture plates in 100 μl volumes of medium (˜2000 cells/well). Following 24 hours at 37° C., the culture medium was removed, and fresh medium (100 μl) containing either the compounds (5-1000 nM) or vehicle (medium plus 0.15% ethanol) was added to 4 replicates for each condition studied and the culture plates were then incubated for up to 96 hours at 37° C. in a 5% CO2 atmosphere. At the end of this period, 25 μl of freshly prepared MTT in HBSS (5 mg/ml) was added to the wells and the plates were incubated for 4 hours at 37° C. Dye solution was aspirated, wells were washed once with HBSS and dye taken up by the cells was extracted in 100 μl of isopropyl alcohol:1 N HCl (96:4, v/v) and quantitated at 570 nm using a microplate reader (Molecular Devices, Menlo Park, Calif.). In some experiments, cells were grown in 12-well culture plates, treated as above and enumerated using a Neubauer hemocytometer. Viability was assessed routinely using trypan blue exclusion assay. For the A549 cells and fibroblasts, a linear relation was established for the MTT values and cell number within the range of the experiments shown (r=0.995, P<0.005). A549 cells grown for 72 hours in the presence of the compounds (5-1000 nM) or vehicle (0.15% EtOH) were lysed with 0.25 N NaOH and the cellular protein content was determined by applying the Bio-Rad (Richmond, Calif.) microassay method using bovine serum albumin as standard. The mean cellular protein content in resting A549 cells was 46.6±1.5 pg/cell.

In assay [1] the target is T1, LXA4 specific binding sites of differentiated HL-60 cells (Homo sapiens, UniProt P25090).
T1 construct: endogenous in cells; host or cells: HL-60 cells differentiated with DMSO, retinoic acid or PMA; intact cells
T1 sequence (P25090 1-351): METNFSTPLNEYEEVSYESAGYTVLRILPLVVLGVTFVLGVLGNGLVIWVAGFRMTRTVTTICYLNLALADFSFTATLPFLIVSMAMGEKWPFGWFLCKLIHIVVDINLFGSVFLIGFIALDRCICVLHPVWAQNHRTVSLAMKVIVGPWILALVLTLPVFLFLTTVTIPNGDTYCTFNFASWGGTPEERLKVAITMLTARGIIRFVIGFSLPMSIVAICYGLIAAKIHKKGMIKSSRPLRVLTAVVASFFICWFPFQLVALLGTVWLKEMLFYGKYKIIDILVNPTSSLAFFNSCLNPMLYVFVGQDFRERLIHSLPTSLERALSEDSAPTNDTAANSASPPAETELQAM
The assay is described as follows: 3H-LXA4 specific binding to differentiated HL-60 cells. The note with it: competition, competitor 300 nM where printed. How it is done: Preparation of [11,12-^3H]LXA4. Tritiation of 11,12-acetylenic LXA4 methyl ester was carried out under a custom tritiation service (NET-259:92-2326) by New England Nuclear (Boston, Mass.). Briefly, 11,12-acetylene methyl ester was characterized by UV absorbance and reverse-phase HPLC as in (Nicolaou, K. C. et al. (1985) J. Am. Chem. Soc. 107:7515) and exposed to tritium atmosphere in methylene chloride at room temperature. This incubation was stirred in the presence of Lindlar catalyst (1.0 mg from Fluka Chemicals) for˜1 h. The resulting mixture was stored in methanol and isolated using RP-HPLC. Tritiated products were chromatographed as methyl esters utilizing a gradient HPLC system equipped with a photodiode array rapid spectral detector (Serhan, C. N., Methods in Enzymology: Arachidonate Related Lipid Mediators, in Murphy R. C., Fitzpatrick, F. (eds.), vol. 187. Orlando, Fla., Academic, (1990), p. 167). This mixture contained both [11,12-^3H]LXA4 and [11,12-^3H]-11-trans-LXA4 methyl esters (˜1:3 ratio) as determined by coelution with synthetic standards. After RP-HPLC, fractions containing [11,12-^3H]LXA4 were collected, and extracted into ethyl acetate. The free acid was prepared by LiOH saponification (Fiore, S. et al. (1992) J. Biol. Chem. 267:16168). Material from these fractions, when injected into UV-electrochemical detection HPLC, gave greater than 90% of radioactivity associated with a tetraene-containing product that coeluted with synthetic LXA4. Materials that eluted with the retention time of authentic LXA4 in two HPLC systems were taken for binding experiments. The specific activity calculated for [11,12-^3H]LXA4 was 40.5 Ci/mmole.
Cell cultures and differentiation. HL-60 cells were seeded in RPMI medium supplemented with 100 U/ml penicillin, 100 μg/ml streptomycin, and 10% fetal calf serum (Hyclone, Logan, Utah), incubated at 37° C. with 5% CO2 atmosphere in 250 ml flasks. Individual flasks containing ˜[…] next received dimethyl sulfoxide (DMSO) (1.12% v/v, 120 h) or retinoic acid (RA) (1 μM, 120 h) or phorbol myristate acetate (PMA) (20 nM, 48 h). Before performing binding assays, cells were washed twice in phosphate buffered saline (PBS), Ca^2+- and Mg^2+-free, enumerated and suspended at 20×10^6 cells/ml in Tris buffer (10 mM), pH 7.4 (Fiore, S. et al.(1992) J. Biol. Chem. 267:16168). Nitro blue tetrazolium reduction was performed to monitor induction of polymorphonuclear phenotype as in (Imaizumi, M. and Breitman, T. R. (1986) Blood 67:1273), and cell adherence was determined for induction of macrophage-like phenotype (Collins, S. J. (1987) Blood 70:1273). Human umbilical vein endothelial cells (HUVEC) maintained in culture third passage were obtained from Dr. M. Gimbrone (Brigham and Women's Hospital Department of Pathology).
Ligand binding. ^3H-LXA4 and ^3H-LTB4 binding was performed essentially as in Fiore, S. et al.(1992) J. Biol. Chem. 267:16168. After suspending cells in Tris buffer 10 mM (pH 7.4, Ca^2+ 2.5 mM, Mg^2+ 1.2 mM), aliquots (0.5 ml) were incubated (20 min at 4° C.) with ^3H- ligands alone (0.3 nM) or in the presence of increasing concentrations of homoligands or other compounds (3-300 nM). The incubations were rapidly centrifuged (60 sec, 12,000 g) on silicon oil (d=1.028), and cell-associated radioactivity was determined by liquid scintillation counting (Wallac 1409, Pharmacia, Piscataway, N.J.). Binding experiments with HUVEC cells were performed in 12 well plates with 3.5×10^5 cells/well. After 10 min, wells were washed twice with PBS and cell-associated label was recovered by adding glacial acetic acid (0.5 ml). Results obtained from these assays were submitted for further analysis using the Ligand program (Elsevier-Biosoft, Cambridge, UK).

The next assay concerns human skin fibroblasts. The assay is described as follows: Fibroblast proliferation, MTT assay. The following applies: 100 nM, n=3. The format is cell-based. From the text: Human type II epithelial A549 cells from human lung carcinoma and normal human skin fibroblast (breast) were obtained from the American Type Culture Collection (Rockville, Md.). The A549 cell line originated from a human alveolar cell carcinoma and was a useful cell line because it was easily assessable and could be maintained in culture without contaminating tissue macrophages. (Lieber, M., et al (1976) A continuous tumor-cell line from a human lung carcinoma with properties of type II alveolar epithelial cells. Int. J Cancer Fibroblasts were utilized within their limited window of viability and their passage numbers were recorded (results are reported for cells from 3-5 passages). Epithelial A549 cells were seeded into T-75 cm^2 tissue culture flasks and maintained in F-12K medium supplemented with 10% heat-inactivated FBS, penicillin (50 U/mL) and streptomycin (50 (g/mL). Human PMN from healthy donors who had not taken ASA or other medications for at least two weeks were obtained by Ficoll-Hypaque gradient centrifugation and dextran sedimentation, (Böyum A. (1968) Isolation of mononuclear cells and granulocytes from human blood. […] Viability of A549 cells and PMN was determined by their ability to exclude trypan blue and were 95±2 and 97±1%, respectively.
A microculture 3,(4,5-dimethylthiazoyl-2-yl) 2,5 (diphenyl-tetrazolium bromide) (MTT) assay, (Marshall, N. J., et al. (1995) A critical assessment of the use of microculture tetrazolium assays to measure cell growth and function. Growth Regul. 5: 69-84.), was used to examine the actions of LXs and other eicosanoids on cell proliferation. A549 cells and fibroblasts from exponential-phase maintenance cultures were counted and dispensed within replicate 96-well culture plates in 100 μl volumes of medium (˜2000 cells/well). […] Dye solution was aspirated, wells were washed once with HBSS and dye taken up by the cells was extracted in 100 μl of isopropyl alcohol:1 N HCl (96:4, v/v) and quantitated at 570 nm using a microplate reader (Molecular Devices, Menlo Park, Calif.). […]

A word on the % inhibition: it is how much of the control response was suppressed. Low values mean little suppression, high ones strong suppression. As for `CCCCC[C@H](O)[C@H](O)/C=C/C=C/C=C\C=C\[C@@H](O)CCCC(=O)O` [LXB4, (5S, 14R, 15S)-trihydroxy-6E, 8Z, 10E, 12E-eicosatetraenoic acid], the “inhibition of A549 cell proliferation over time” value with A549 cells (1 μM, after 72 and 96 hours of treatment) is “inhibited A549 cell proliferation”. For the same molecule, the “% inhibition” value in the assay with A549 cells (10^−7 M, 72 hours at 37° C., mean ± SEM, 3 to 7 experiments) is reported as 30.0 ± 8.5%. The “times more active than either LXA4 or dexamethasone” value with A549 cells (concentrations of 0.5 and 1 μM, 72 hours) is 3 times. In the assay with A549 cells (equimolar levels (100 nM), Table 1), the inhibition proliferation was ~34%. The “displacement of 3H-LXA4 specific binding” value in assay [1] is on record as “Neither LXB4, LTB4, nor trihydroxyheptanoic acid (methyl ester) (300 nM) were able to displace”. Also, the “inhibition of proliferation of fibroblasts” value in the assay with human skin fibroblasts is 38.0%.
